Measurements reported in ChEMBL document CHEMBL6109102, “Conjugation with the XJB peptide enhanced neuroprotective effect of honokiol via SIRT3 modulation” (Eur J Med Chem, 2025).
Values belong to the compound of their own block, whether it stands above or below them. The source made the active and inactive calls. No cut-off for these calls is given here.

Assays:
PC-12 [1] = experiment: Neuroprotective activity against H2O2-induced cell injury in rat PC12 cells assessed as cell viability incubated for 24 hrs by MTT assay; format: functional, cell-based; details: dose 0.37-30 µM
PC-12 [2] = experiment: Inhibition of apoptosis in H2O2-induced rat PC12 cells assessed as early apoptotic cells at 1.25 uM incubated with compound for 24 hrs followed by H2O2 addition and measured after 24 hrs by Annexin V-FITC/PI staining based flow cytometry analysis (reference value: 1.09%); format: functional; parameters: scale not given: the % may be the effect or the level left
PC-12 [3] = experiment: Inhibition of apoptosis in H2O2-induced rat PC12 cells assessed as early apoptotic cells at 2.5 uM incubated with compound for 24 hrs followed by H2O2 addition and measured after 24 hrs by Annexin V-FITC/PI staining based flow cytometry analysis (reference value: 1.09%); format: functional; parameters: scale not given: the % may be the effect or the level left
PC-12 [4] = experiment: Inhibition of apoptosis in H2O2-induced rat PC12 cells assessed as necrotic cells at 2.5 uM incubated with compound for 24 hrs followed by H2O2 addition and measured after 24 hrs by Annexin V-FITC/PI staining based flow cytometry analysis (reference value: 4.05%); format: functional; parameters: scale not given: the % may be the effect or the level left
PC-12 [5] = experiment: Inhibition of apoptosis in H2O2-induced rat PC12 cells assessed as late apoptotic cells at 1.25 uM incubated with compound for 24 hrs followed by H2O2 addition and measured after 24 hrs by Annexin V-FITC/PI staining based flow cytometry analysis (reference value: 2.64%); format: functional; parameters: scale not given: the % may be the effect or the level left
PC-12 [6] = experiment: Cytotoxicity against rat PC12 cells assessed as inhibition of cell viability at 30 uM incubated for 24 hrs by MTT assay; format: functional, cell-based
PC-12 [7] = experiment: Anti-apoptotic activity in H2O2-induced rat PC12 cells assessed as increase in PARP protein expression at 1.25 to 5 uM by Western blot analysis; format: functional, cell-based; details: dose 1.25-5 µM
PC-12 [8] = experiment: Inhibition of apoptosis in H2O2-induced rat PC12 cells assessed as necrotic cells at 5 uM incubated with compound for 24 hrs followed by H2O2 addition and measured after 24 hrs by Annexin V-FITC/PI staining based flow cytometry analysis (reference value: 4.05%); format: functional; parameters: scale not given: the % may be the effect or the level left
PC-12 [9] = experiment: Inhibition of apoptosis in H2O2-induced rat PC12 cells assessed as viable cells at 2.5 uM incubated with compound for 24 hrs followed by H2O2 addition and measured after 24 hrs by Annexin V-FITC/PI staining based flow cytometry analysis (reference value: 91.4%); format: functional; details: read-out: Activity
PC-12 [10] = experiment: Inhibition of apoptosis in H2O2-induced rat PC12 cells assessed as late apoptotic cells at 5 uM incubated with compound for 24 hrs followed by H2O2 addition and measured after 24 hrs by Annexin V-FITC/PI staining based flow cytometry analysis (reference value: 2.64%); format: functional; parameters: scale not given: the % may be the effect or the level left
PC-12 [11] = experiment: Inhibition of apoptosis in H2O2-induced rat PC12 cells assessed as late apoptotic cells at 2.5 uM incubated with compound for 24 hrs followed by H2O2 addition and measured after 24 hrs by Annexin V-FITC/PI staining based flow cytometry analysis (reference value: 2.64%); format: functional; parameters: scale not given: the % may be the effect or the level left
PC-12 [12] = experiment: Inhibition of apoptosis in H2O2-induced rat PC12 cells assessed as necrotic cells at 1.25 uM incubated with compound for 24 hrs followed by H2O2 addition and measured after 24 hrs by Annexin V-FITC/PI staining based flow cytometry analysis (reference value: 4.05%); format: functional; parameters: scale not given: the % may be the effect or the level left
Danio rerio = experiment: Anti-alzheimer activity in scopolamine induced zebrafish alzheimer disease model assessed as increase in total swimming distance at 1.25 to 5 uM administered for 6 days post fertilization; format: functional, organism-based; details: dose 1.25-5 µM, time 6.0 day
PC-12 [13] = experiment: Inhibition of apoptosis in H2O2-induced rat PC12 cells assessed as early apoptotic cells at 5 uM incubated with compound for 24 hrs followed by H2O2 addition and measured after 24 hrs by Annexin V-FITC/PI staining based flow cytometry analysis (reference value: 1.09%); format: functional; parameters: scale not given: the % may be the effect or the level left
PC-12 [14] = experiment: Neuroprotective activity against H2O2-induced cell injury in rat PC12 cells assessed as cell viability at 2 uM incubated for 24 hrs by MTT assay; format: functional, cell-based
PC-12 [15] = experiment: Cytoprotective activity against H2O2-induced cell injury in rat PC12 cells at 2.5 uM incubated with compound for 24 hrs followed by H2O2 addition and measured up to 96 hrs by Real-time cell analysis; format: functional, cell-based; details: time <= 120.0 hrs
PC-12 [16] = experiment: Inhibition of apoptosis in H2O2-induced rat PC12 cells assessed as viable cells at 1.25 uM incubated with compound for 24 hrs followed by H2O2 addition and measured after 24 hrs by Annexin V-FITC/PI staining based flow cytometry analysis (reference value: 91.4%); format: functional; details: read-out: Activity
PC-12 [17] = experiment: Inhibition of apoptosis in H2O2-induced rat PC12 cells assessed as viable cells at 5 uM incubated with compound for 24 hrs followed by H2O2 addition and measured after 24 hrs by Annexin V-FITC/PI staining based flow cytometry analysis (reference value: 91.4%); format: functional; details: read-out: Activity
PC-12 [18] = experiment: (§1) Neuroprotective activity in H2O2-induced rat PC12 cells assessed as reversal of mitochondrial membrane potential reduction by measuring red fluorescence at 5 uM incubated with compound for 24 hrs followed by H2O2 addition and measured after 24 hrs by JC-1 based fluorescence microscopic analysis (reference value: 21.62 a.u.); format: functional
SH-SY5Y = experiment: Cytotoxicity against human SH-SY5Y cells assessed as inhibition of cell viability at 100 uM incubated for 24 hrs by MTT assay; format: functional, cell-based
PC-12 [19] = experiment: (§2) Neuroprotective activity in H2O2-induced rat PC12 cells assessed as reversal of mitochondrial membrane potential reduction by measuring red fluorescence fold change at 1.5 uM incubated with compound for 24 hrs followed by H2O2 addition and measured after 24 hrs by JC-1 based fluorescence microscopic analysis (reference value: 1.00); format: functional
PC-12 [20] = experiment: as §2, with “measuring green” for “measuring red”; format: functional
PC-12 [21] = experiment: as §2, with “2.5” for “1.5”; format: functional
[22] = Drug uptake in cytoplasm of rat PC12 cells at 8 uM incubated for 8.5 hrs by HPLC analysis; format: ADME, subcellular; details: pc12, 8.5 h
PC-12 [23] = experiment: Neuroprotective activity in H2O2-induced rat PC12 cells assessed as reduction in cell viability in presence of 3-TYP at 10 uM; format: functional, cell-based
PC-12 [24] = experiment: Induction of autophagy in rat PC12 cells assessed as reduction of LC3-II/I ratio in presence of 3-TYP by Western blot analysis; format: functional, cell-based
PC-12 [25] = experiment: Neuroprotective activity in H2O2-induced rat PC12 cells assessed as upregulation of SIRT-3 level at 1.25 to 5 uM by Western blot analysis; format: functional, cell-based; details: dose 1.25-5 µM
PC-12 [26] = experiment: Induction of autophagy in H2O2-induced rat PC12 cells assessed as upregulation of LC3-II/I ratio by Western blot analysis; format: functional, cell-based; details: dose 1.25-5 µM
PC-12 [27] = experiment: as §1, with “measuring green” for “measuring red”, “at 1.5” for “at 5”, “value: 4.90” for “value: 21.62”; format: functional
PC-12 [28] = experiment: Induction of autophagy in H2O2-induced rat PC12 cells assessed as downregulation of P62 expression by Western blot analysis; format: functional, cell-based; details: dose 1.25-5 µM
PC-12 [29] = experiment: as §1, with “1.25” for “5”; format: functional
PC-12 [30] = experiment: as §1, with “2.5” for “5”; format: functional
[31] = Drug uptake in rat PC12 cells at 8 uM incubated for 8.5 hrs by HPLC analysis; format: ADME, cell-based; details: pc-12, 8.5 h
PC-12 [32] = experiment: Neuroprotective activity in H2O2-induced rat PC12 cells assessed as suppression of Mfn-1 expression in presence of 3-TYP by Western blot analysis; format: functional, cell-based
PC-12 [33] = experiment: Neuroprotective activity in H2O2-induced rat PC12 cells assessed as upregulation of p-AMPK/AMPK ratio at 1.25 to 5 uM by Western blot analysis; format: functional, cell-based; details: dose 1.25-5 µM
[34] = Drug uptake in mitochondria of rat PC12 cells at 8 uM incubated for 8.5 hrs by HPLC analysis; format: ADME; details: pc12, 8.5 h
PC-12 [35] = experiment: Neuroprotective activity in H2O2-induced rat PC12 cells assessed as upregulation of Mfn-1 expression at 1.25 to 5 uM by Western blot analysis; format: functional, cell-based; details: dose 1.25-5 µM
PC-12 [36] = experiment: as §2, with “measuring green” for “measuring red”, “at 5” for “at 1.5”; format: functional
PC-12 [37] = experiment: as §2, with “5” for “1.5”; format: functional
PC-12 [38] = experiment: as §1, with “measuring green” for “measuring red”, “value: 4.90” for “value: 21.62”; format: functional
PC-12 [39] = experiment: as §1, with “measuring green” for “measuring red”, “at 2.5” for “at 5”, “value: 4.90” for “value: 21.62”; format: functional
PC-12 [40] = experiment: as §2, with “measuring green” for “measuring red”, “at 2.5” for “at 1.5”; format: functional

SMILES: C=CCc1ccc(OCCCNC(=O)[C@H](CCCNC(=O)OCc2ccccc2)NC(=O)[C@@H](NC(=O)[C@@H]2CCCN2C(=O)[C@@H](Cc2ccccc2)NC(=O)[C@H](CC(C)C)NC(=O)OC(C)(C)C)C(C)C)c(-c2ccc(O)c(CC=C)c2)c1
Activity (PC-12 [1]): Dose-dependent-effect
Activity (PC-12 [2]): 17.2%
Activity (PC-12 [3]): 11.6%
Activity (PC-12 [4]): 1.66%
Activity (PC-12 [5]): 4.86%
Activity (PC-12 [6]): inactive
Activity (PC-12 [7]): Active
Activity (PC-12 [8]): 1.58%
viability at 2.5 µM (PC-12 [9]): 83.9%
Activity (PC-12 [10]): 2.69%
Activity (PC-12 [11]): 2.87%
Activity (PC-12 [12]): 1.4%
Activity (Danio rerio): Active
Activity (PC-12 [13]): 8.97%
Activity (PC-12 [14]): Active
Activity (PC-12 [15]): Active
viability at 1.25 µM (PC-12 [16]): 76.6%
viability at 5 µM (PC-12 [17]): 86.8%

Drug uptake [22]: Active
Drug uptake [31]: Active
Drug uptake [34]: Active
SMILES: C=CCc1ccc(O)c(-c2ccc(OCCCNC(=O)[C@H](CCCNC(=O)OCc3ccccc3)NC(=O)[C@@H](NC(=O)[C@@H]3CCCN3C(=O)[C@@H](Cc3ccccc3)NC(=O)[C@H](CC(C)C)NC(=O)OC(C)(C)C)C(C)C)c(CC=C)c2)c1
Activity (PC-12 [18]): 15.68 a.u.
Activity (SH-SY5Y): inactive
fold change (FC) (PC-12 [19]): 0.14
Activity (PC-12 [1]): Dose-dependent-effect
fold change (FC) (PC-12 [20]): 1.4
fold change (FC) (PC-12 [21]): 0.52
Activity (PC-12 [23]): Active
Activity (PC-12 [24]): Active
Activity (PC-12 [25]): Active
Activity (PC-12 [26]): Dose-dependent-effect
Activity (PC-12 [27]): 3.7 a.u.
Activity (PC-12 [28]): Dose-dependent-effect
Activity (PC-12 [29]): 3.18 a.u.
Activity (PC-12 [30]): 11.01 a.u.
Activity (PC-12 [32]): Active
Activity (PC-12 [33]): Active
Activity (PC-12 [35]): Active
fold change (FC) (PC-12 [36]): 1.44
Activity (PC-12 [14]): Active
fold change (FC) (PC-12 [37]): 0.74
Activity (PC-12 [38]): 4.76 a.u.
Activity (PC-12 [39]): 7.17 a.u.
fold change (FC) (PC-12 [40]): 2.91

SMILES: C=CCc1ccc(OCCCNC(=O)[C@H](CCCNC(=O)OCc2ccccc2)NC(=O)[C@@H](NC(=O)[C@@H]2CCCN2C(=O)[C@@H](Cc2ccccc2)NC(=O)[C@H](CC(C)C)NC(=O)OC(C)(C)C)C(C)C)c(-c2ccc(OC)c(CC=C)c2)c1
Activity (PC-12 [6]): inactive
